Experimental data as given in patent US7622469B2, “2,4-diamino-1,3,5-triazine derivatives” (Hamari Chemicals, Ltd., priority 2002, dated 2009).
Values after ≈ are worked out from the molar mass of the structure shown.

What was measured:
Test in all cases: Antibacterial activity test (MIC)
Conditions in all cases: Mueller-Hinton Broth, 37° C., 20 to 24 hours
MRSA 97-115 = type: cell-based, methicillin-resistant Staphylococcus aureus
Protocol: (§1) Regarding compounds obtained in respective Working Examples, in order to investigate antibacterial activity, minimal inhibitory concentration (MIC) was determined according to a standard method of Japanese Society of Chemotherapy.
(§2) As a test bacterium, nine kinds of S. aureus 209PJC, MRSA 97-115, MRSA KM 97-53, MRSA KM97-108, VRE 49, E. coli NIHJ JC-2, P. aeruginosa PAO-1, P. aeruginosa No. 12, P. aeruginosa KM97-5 were used and, as a medium, Mueller-Hinton Broth (DIFCO) was used. One platinum loop of a test bacterium was inoculated into 20 ml of a medium, and static culture was carried out at 37° C. for 16 to 20 hours, and then each bacterium species was diluted with a sterilized physiological saline to 10^5/ml, which was used as a test bacterium solution.
(§3) Then, each compound was dissolved in methanol, subjected to ½ stepwise dilution with a medium to prepare a medium for measuring sensitivity, and each 2 ml was dispensed into a test tube. A compound concentration in a medium was adjusted to 100 μg/ml and its 2^n-fold (n=−10 to 1).
(§4) Numerical values in Tables represent MIC expressed in μg/ml unit.

P. aeruginosa PAO-1 = type: cell-based
Protocol: as §1, §2, §3, §4

S. aureus 209PJC = type: cell-based
Protocol: as §1, §2, §3, §4

E. coli NIHJ JC-2 = type: cell-based
Protocol: as §1, §2, §3, §4

SMILES	minimal inhibitory concentration (MIC) (MRSA 97-115) [µg/mL]	minimal inhibitory concentration (MIC) (P. aeruginosa PAO-1) [µg/mL]	minimal inhibitory concentration (MIC) (S. aureus 209PJC) [µg/mL]	minimal inhibitory concentration (MIC) (E. coli NIHJ JC-2) [µg/mL]
CCCCCCCCCCCCC1N=C(N)N=C(N)N1CCc1ccc(OC)cc1.Cl (racemic) [15(2)]	1.6	50	0.4	50
CCCCCCCCCCCCC1N=C(N)NC(NCc2ccc(OC)cc2)=N1.Cl (racemic) [16(1)]	1.6	50	0.4	25
CCCCCCCCCCCCC1N=C(N)N=C(N)N1Cc1ccc(OC)cc1.Cl (racemic) [16(2)]	1.6	25	0.4	25
CCCCCCCCCCC1N=C(N)NC(NCc2ccc(C(F)(F)F)cc2)=N1.Cl (racemic) [18(1)]	0.8	25	0.4	6.3
CCCCCCCCCCC1N=C(N)N=C(N)N1Cc1ccc(C(F)(F)F)cc1.Cl (racemic) [18(2)]	1.6	12.5	0.8	6.3
CCCCCCCCCCCC1N=C(N)N=C(N)N1c1ccc(F)cc1F.Cl (racemic) [compound 35]	3.1	25	0.8	25
CCCCCCCCCCCC1N=C(N)NC(Nc2ccc(F)cc2F)=N1.Cl (racemic) [compound 36]	1.6	>100	0.8	>100
CCCCCCCCCCCCC1N=C(N)NC(NCc2ccccc2)=N1.Cl (racemic) [compound 44]	0.8	12.5	0.2	1.6
CCCCCCCCCCCC1(C)N=C(N)N=C(N)N1c1ccc(Cl)cc1.Cl (racemic) [compound 45]	0.4	>100	0.4	>100
CCCCCCCCCCCC1(C)N=C(N)NC(NCc2ccccc2)=N1.Cl (racemic) [compound 46]	0.4	25	0.4	12.5
CCCCCCCCNC1=NC(C)(C)N=C(NCc2ccc(Cl)c(Cl)c2)N1.Cl [12(1)]	0.8	25	0.4	25
CCCCCCCCNC1=NC(C)(C)N(Cc2ccc(Cl)c(Cl)c2)C(N)=N1.Cl [12(2)]	1.6	50	0.8	50
CCCCCCCCCCNC1=NC(C)(C)N=C(NCc2ccccc2)N1.O=C(O)CC(=O)O [41(2)]	0.8	12.5	0.4	6.3
CCCCCCCCCCNC1=NC(C)(C)N=C(NCc2ccc(OC)cc2)N1.Cl [Example 1]	0.4	25	0.4	12.5
CCCCCCCCCCNC1=NC(C)(C)N=C(NCc2ccc(OC)c(OC)c2)N1.Cl [compound 3]	1.6		1.6	25
CCCCCCCCCNC1=NC(C)(C)N=C(NCCc2ccc(OC)cc2)N1.Cl [compound 5]	0.9		0.5	
CCCCCCCCCCCNC1=NC(C)(C)N=C(NCCc2ccc(OC)cc2)N1.Cl [compound 6]	1.8	114	0.9	57
CCCCCCCCCCNC1=NC(C)(C)N=C(NCc2ccc(O)cc2)N1.Cl [compound 7]	0.8	50	0.2	12.5
CCCCCCCCNC1=NC(C)(C)N=C(NCc2ccc(O)cc2)N1.Cl [compound 8]	3.1	>100	0.4	25
CCCCCCCCCCCNC1=NC(C)(C)N=C(NCc2ccc(O)cc2)N1.Cl [compound 9]	1.6	>100	0.4	100
CCCCCCCCCCNC1=NCN=C(NCCc2ccc(OC)cc2)N1.Cl [compound 10]	6.4	26	0.4	
CCCCCCCCCCNC1=NC(C)(C)N(c2ccc(OC)cc2)C(N)=N1.Cl [compound 14]	3.1	100	3.1	50
CCCCCCCCC1N=C(N)NC(NCc2ccc(C(F)(F)F)cc2)=N1.Cl (stereo not drawn) [compound 17]	1.6	25	0.8	12.5
CCCCCCCCCCCC1N=C(N)NC(NCc2ccc(C(F)(F)F)cc2)=N1.Cl (stereo not drawn) [compound 19]	3.1	100	0.4	50
CCCCCCCC1N=C(N)N=C(N)N1c1ccc(C(C)(C)C)cc1.Cl (stereo not drawn) [compound 20]	3.1	50	3.1	50
CCCCCCCCC1N=C(N)N=C(N)N1c1ccc(C(C)(C)C)cc1.Cl (stereo not drawn) [compound 21]	3.1	50	1.5	25
CCCCCCCCC1N=C(N)NC(Nc2cc(C(C)(C)C)ccc2OC)=N1 (stereo not drawn) [compound 25]	1.6 (≈ 4.13 µM)		1.6 (≈ 4.13 µM)	
CC(=O)O.CCCCCCCCCCNC1=NC(C)(C)N=C(NCc2ccccc2)N1 [compound 50]	0.4	25	0.4	
